# Values quoted from earlier work in patent publication US10201584B1, “Compositions and methods for treating HCV” (AbbVie Inc., priority 2011, dated 2019).
# System: HCV
# Details: hepatitis C patients; background statement
smiles,measurement,value
NC(=O)c1ncn([C@@H]2O[C@H](CO)[C@@H](O)[C@H]2O)n1 [ribavirin],suppression of HCV levels / effectiveness of regimen,does not effectively suppress HCV levels
